Measured values: paper PMC5345657, “Targeting myeloid differentiation protein 2 by the new chalcone L2H21 protects LPS‐induced acute lung injury” (Journal of Cellular and Molecular Medicine, 2016)

Target: T1, MD-2 (myeloid differentiation protein 2, rhMD-2) (Homo sapiens, UniProt Q9Y6Y9)
T1 construct: gene LY96; recombinant human MD-2 (rhMD-2, R&D Systems)
T1 sequence (Q9Y6Y9 19-160): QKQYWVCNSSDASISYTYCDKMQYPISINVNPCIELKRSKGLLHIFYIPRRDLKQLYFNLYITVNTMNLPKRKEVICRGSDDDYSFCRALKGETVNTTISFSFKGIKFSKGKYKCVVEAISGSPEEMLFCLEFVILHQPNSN
Assay: SPR (ProteOn XPR36); supported by bis-ANS displacement and biotin-LPS competition ELISA; R90A and Y102A abolish binding

In the case of COc1cccc(/C=C/C(=O)c2ccc(O)c(O)c2)c1OC [L2H21, (E)‐2,3‐Dimethoxy‐3′,4′‐dihydroxychalcone], the Kd is reported as 19.1 µM.
